Reference: patent US9206128B2 (Constellation Pharmaceuticals, Inc., priority 2011, dated 2015)

Columns and labels:
Y641N EZH2 = Y641N EZH2 (Homo sapiens, UniProt Q15910, Y641N); assay: Y641N EZH2 activity inhibition assay (as EZH2 assay, reconstituted H3K27Me2 oligonucleosomes as substrate); type: biochemical; details: Y641N EZH2 mutant enzyme
EZH2 = EZH2 (Homo sapiens, UniProt Q15910); assay: EZH2 activity inhibition assay (rPRC2, 3H SAM, biotinylated oligonucleosomes, FlashPlate); type: biochemical; details: rPRC2, 2 nM EZH2, 0.2 μM 3H SAM, top concentration 80 μM
Sequence of EZH2 (Q15910 whole entry): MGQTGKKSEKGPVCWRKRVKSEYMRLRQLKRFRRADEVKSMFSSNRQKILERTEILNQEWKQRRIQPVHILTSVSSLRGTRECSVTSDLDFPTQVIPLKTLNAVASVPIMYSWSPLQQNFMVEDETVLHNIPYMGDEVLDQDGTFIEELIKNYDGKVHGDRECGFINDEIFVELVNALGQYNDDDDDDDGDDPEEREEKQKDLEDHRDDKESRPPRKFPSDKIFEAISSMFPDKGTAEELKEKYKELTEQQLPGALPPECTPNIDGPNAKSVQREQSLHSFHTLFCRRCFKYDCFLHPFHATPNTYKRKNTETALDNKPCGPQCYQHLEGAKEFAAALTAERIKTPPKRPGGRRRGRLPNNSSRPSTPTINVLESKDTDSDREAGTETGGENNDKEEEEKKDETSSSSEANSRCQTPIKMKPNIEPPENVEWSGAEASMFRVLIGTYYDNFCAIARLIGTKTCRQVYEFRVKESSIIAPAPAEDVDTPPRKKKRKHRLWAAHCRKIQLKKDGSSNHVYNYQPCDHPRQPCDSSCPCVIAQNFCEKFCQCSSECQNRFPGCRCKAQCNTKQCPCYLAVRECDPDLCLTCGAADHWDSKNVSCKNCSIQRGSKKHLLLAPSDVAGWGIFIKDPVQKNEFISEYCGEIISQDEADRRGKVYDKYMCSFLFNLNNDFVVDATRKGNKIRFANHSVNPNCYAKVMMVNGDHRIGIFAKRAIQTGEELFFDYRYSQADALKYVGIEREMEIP
Sequence of EZH2 (O75530 whole entry partner): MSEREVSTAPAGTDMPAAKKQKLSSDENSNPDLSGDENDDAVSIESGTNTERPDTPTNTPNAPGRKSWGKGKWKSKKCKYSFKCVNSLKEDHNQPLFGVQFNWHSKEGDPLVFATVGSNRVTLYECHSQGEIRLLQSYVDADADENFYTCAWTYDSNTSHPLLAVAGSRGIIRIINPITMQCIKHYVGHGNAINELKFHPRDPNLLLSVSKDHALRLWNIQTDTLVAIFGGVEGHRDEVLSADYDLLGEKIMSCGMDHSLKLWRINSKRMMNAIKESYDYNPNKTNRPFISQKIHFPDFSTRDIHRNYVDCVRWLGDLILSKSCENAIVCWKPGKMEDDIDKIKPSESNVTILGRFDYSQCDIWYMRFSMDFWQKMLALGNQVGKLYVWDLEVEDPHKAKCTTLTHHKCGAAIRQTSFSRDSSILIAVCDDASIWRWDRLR
Sequence of EZH2 (Q15022 whole entry partner): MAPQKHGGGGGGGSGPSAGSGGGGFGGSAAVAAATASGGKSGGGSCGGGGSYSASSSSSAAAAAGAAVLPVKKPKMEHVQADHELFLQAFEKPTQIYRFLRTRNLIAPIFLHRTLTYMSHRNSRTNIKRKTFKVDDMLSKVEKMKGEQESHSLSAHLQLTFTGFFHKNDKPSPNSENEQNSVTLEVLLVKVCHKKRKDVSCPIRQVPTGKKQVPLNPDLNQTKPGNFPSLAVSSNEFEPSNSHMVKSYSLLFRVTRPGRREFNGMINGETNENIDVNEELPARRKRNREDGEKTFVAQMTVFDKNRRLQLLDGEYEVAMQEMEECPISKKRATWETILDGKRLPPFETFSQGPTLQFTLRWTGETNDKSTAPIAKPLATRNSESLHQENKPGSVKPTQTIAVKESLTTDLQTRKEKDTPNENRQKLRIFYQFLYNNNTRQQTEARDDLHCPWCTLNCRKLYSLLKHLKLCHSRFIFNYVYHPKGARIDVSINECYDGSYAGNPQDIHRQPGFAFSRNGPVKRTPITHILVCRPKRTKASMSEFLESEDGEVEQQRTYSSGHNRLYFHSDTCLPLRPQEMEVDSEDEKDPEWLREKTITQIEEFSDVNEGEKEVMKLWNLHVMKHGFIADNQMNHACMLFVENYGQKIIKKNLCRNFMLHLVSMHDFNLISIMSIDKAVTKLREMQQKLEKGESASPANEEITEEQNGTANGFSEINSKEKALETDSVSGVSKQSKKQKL

Sequence of Y641N EZH2 (Q15910 whole entry Y641N): as the sequence (Q15910 whole entry) above, with Y641N counted along it
Sequence of Y641N EZH2 (O75530 whole entry partner): as the sequence (O75530 whole entry partner) above
Sequence of Y641N EZH2 (Q15022 whole entry partner): as the sequence (Q15022 whole entry partner) above

## COc1cc(C)[nH]c(=O)c1CNC(=O)c1ccc(Oc2ccccc2)cc1 [Compound I-195, N-((2-hydroxy-4-methoxy-6-methylpyridin-3-yl)methyl)-4-phenoxybenzamide]
Y641N EZH2
  IC50: 1000 to 10000 nM
EZH2
  IC50: < 1000 nM

## Cc1cc(N)c(CNC(=O)c2ccc(Oc3ccccc3)cc2)c(=O)[nH]1 [Compound I-196, N-((4-amino-2-hydroxy-6-methylpyridin-3-yl)methyl)-4-phenoxybenzamide]
Y641N EZH2
  IC50: > 80000 nM
EZH2
  IC50: 1000 to 10000 nM

## Cc1cc(C)c(CNC(=O)c2c(C)cn(C(C)c3ccccc3)c(=O)c2C)c(=O)[nH]1 (stereo not drawn) [Compound I-200, N-((4,6-dimethyl-2-oxo-1,2-dihydropyridin-3-yl)methyl)-3,5-dimethyl-2-oxo-1-(1-phenylethyl)-1,2-dihydropyridine-4-carboxamide]
Y641N EZH2
  IC50: 1000 to 10000 nM
EZH2
  IC50: < 1000 nM
